Results on eight molecules are retold here after article PMC8481833, “Kinetic Characterization and Inhibitor Screening of Pyruvate Kinase I From Babesia microti” (Frontiers in Microbiology, 2021).

Data set [1] concerns the target T1, rBmPYKI (Babesia microti, UniProt A0A1N6LXR4). Kind of data set: biochemical. Format: biochemical.
A further data set has as its target rBmLDH (Babesia microti, UniProt I7J7V6). Put plainly: biochemical. It is filed as biochemical.
The target of data set [2] is T1, rBmPYKI. Kind of data set: Enzyme kinetics of rBmPYKI on substrates PEP and ADP. Particulars: substrate of rBmPYKI. Format: biochemical. The procedure:
To determine the enzymatic activity of purified rBmPYKI, the GST tag was removed from the recombinant protein; and the indirect coupled lactate dehydrogenase (LDH) assay was applied. Recombinant B. microti LDH (rBmLDH) protein, the only one isoform in B. microti, was expressed and purified according to previously published protocol ([Yu et al., 2019]). The standard enzyme kinetic assay was conducted by monitoring the decrease in NADH at a wavelength of 340 nm using a microplate reader (BioTek, Winooski, VT, United States). One unit of the PYK activity here was defined as 1 μmol of NADH oxidized per minute at 37°C. The samples were continuously measured at 2, 7, 12, 17, 22, and 27 min. To determine the effects of pH and the concentration of Mg^2+ and K^+ on rBmPYKI, the assay was performed in the pH range of 5.5–8.5, and the Mg^2+ and K^+ concentrations ranged from 0 to 200 mM (0, 25, 50, 75, 100, 125, 150, 175, and 200 mM). The standard assay mixture (200 μl) contained 50 mM of Tris-HCl (pH 7.0), 50 mM of MgCl2, 20 mM of KCl, 0.5 mM of NADH (MilliporeSigma), 3 mM of PEP (MilliporeSigma), 1 mM of ADP (MilliporeSigma), 100 ng of rBmLDH (20 U), and 100 ng of rBmPYKI. The initial velocity for the rate of […] of NADH in the first 5 min was calculated, and the relative percentage activity was determined. The kinetic parameters for PEP (at 0.5, 1, 2, 3, 4, and 5 mM) under saturating ADP conditions (3 mM) were determined. The Michaelis–Menten constant (Km) for ADP under 7 mM of PEP (saturation) was determined at 0.05, 0.1, 0.2, 0.4, 0.6, 0.8, 1.0, 1.5, and 2.0 mM.

In another data set the test system is PYK from T. gondii. Particulars: cited from earlier work.
A further data set concerns PYK from P. falciparum. Particulars: cited from earlier work.
Data set [3] relates to corresponding enzymes from mammals. As to conditions: cited from earlier work.
The subject of data set [4] is B. microti. Kind of data set: Growth inhibition of Babesia microti by in vitro culture. Format: cell-based. As to conditions: Babesia microti; in vitro culture, 72 h, parasitemia by Giemsa staining; read-out: IC50 B. microti. The procedure:
Infected mouse blood was collected and centrifuged at 845 × g for 5 min, and the infected mouse RBCs was isolated. The RBCs infected by B. microti were diluted to 5% with uninfected mouse and human RBCs (10:1). […] Drug-free wells were set up as blank control. All treatments were carried out in triplicate. After 72 h of incubation, parasitemia was examined by Giemsa staining under a microscope.

The nature of data set [5]: in vitro. Particulars: African green monkey.
Data set [6] is described as follows: in vitro. As to conditions: human.
Data set [7] concerns B. microti. Kind of data set: Rescue assay of tannic acid (pyruvate or ATP added). Format: cell-based, Babesia microti. Particulars: tannic acid 1 μM, DA about 10 μM. The method, then:
MilliporeSigma) was used as the positive control, and DMSO was used as the negative control because tannic acid was diluted in DMSO. The group only containing medium without any treatment was used as the blank control. Each test was performed in triplicate.

The next data set concerns trypanosomes. Also on record: method as in Worku et al., 2015. As to conditions: net ATP depletion by inhibiting PYK; ref Worku et al., 2015; cited from earlier work.

Read-outs that look alike come from different tables or passages of the source. A value given as a limit tells only on which side of the number the result lay.

Sequence of rBmLDH (I7J7V6 1-332): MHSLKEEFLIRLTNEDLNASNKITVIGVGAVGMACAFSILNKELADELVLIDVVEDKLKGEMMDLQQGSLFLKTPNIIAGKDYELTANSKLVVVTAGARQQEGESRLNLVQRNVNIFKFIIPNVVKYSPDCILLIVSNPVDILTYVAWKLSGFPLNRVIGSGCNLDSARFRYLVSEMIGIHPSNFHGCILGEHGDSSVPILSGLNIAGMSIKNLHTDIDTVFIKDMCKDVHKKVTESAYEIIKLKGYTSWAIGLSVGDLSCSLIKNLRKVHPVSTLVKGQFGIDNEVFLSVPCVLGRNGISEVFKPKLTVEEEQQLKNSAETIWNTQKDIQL
T1 sequence (A0A1N6LXR4 1-489): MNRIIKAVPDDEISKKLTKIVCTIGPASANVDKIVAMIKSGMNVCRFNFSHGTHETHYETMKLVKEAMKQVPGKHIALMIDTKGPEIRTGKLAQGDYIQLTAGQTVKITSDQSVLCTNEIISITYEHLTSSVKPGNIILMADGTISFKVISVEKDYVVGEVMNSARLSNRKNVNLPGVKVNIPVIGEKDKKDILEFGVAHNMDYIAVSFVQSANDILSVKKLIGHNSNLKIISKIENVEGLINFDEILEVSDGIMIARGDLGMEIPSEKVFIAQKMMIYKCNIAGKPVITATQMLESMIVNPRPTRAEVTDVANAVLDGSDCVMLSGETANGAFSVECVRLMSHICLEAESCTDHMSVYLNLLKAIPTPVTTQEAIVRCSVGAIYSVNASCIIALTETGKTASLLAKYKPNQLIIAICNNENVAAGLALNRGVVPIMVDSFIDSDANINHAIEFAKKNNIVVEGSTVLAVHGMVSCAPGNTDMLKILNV

Regarding `O=c1cc(-c2ccccc2)oc2ccc(O)cc12` [6-Hydroxyflavone], the values for the IC50 on rBmPYKI [1] (read-out: IC50 rBmPYKI) and on rBmLDH (read-out: IC50 rBmLDH) were 390 µM and 828 µM, respectively. Besides, at rBmLDH, the “effect on rBmLDH / LDH reaction activity” value was “obvious inhibitory effect”.
In turn, `Nc1ncnc2c1ncn2[C@@H]1O[C@H](COP(=O)(O)OP(=O)(O)O)[C@@H](O)[C@H]1O` [ADP] gave a Kcat at rBmPYKI [2] of 21.8 S^–1. The KcatKM at rBmPYKI [2] is reported as 5.62 × 10^4 S^–1⋅M^–1. In addition, on rBmPYKI [2], the Vmax was found to be 242 ± 16 U/mg. In addition, the Km – broadly, the substrate concentration at which the rate is half of its maximum – at rBmPYKI [2] (other substrate saturating) was 388 ± 87 µM; in the data set with PYK from T. gondii it was 180 µM; in the data set on PYK from P. falciparum, 126 µM; in data set [3] it was 350 µM.
Take `O=c1cc(-c2ccc(O)cc2)oc2cc(O)cc(O)c12` [Apigenin]: the concentration for half-maximal inhibition (IC50) – broadly, the concentration that gives 50% inhibition – against rBmPYKI [1] is 70 µM; on rBmLDH (read-out: IC50 rBmLDH) it was over 1950 µM; with B. microti [4], 2.1 ± 1.16 µM. Further, the “effect on the activity of rBmPYKI” value on rBmPYKI [1] was “significantly inhibit”. Also, on rBmLDH, the “effect on rBmLDH / LDH reaction activity” value is reported as “did not affect”. In addition, the CC50 is 58.6 ± 2.97 µM in “in vitro [5]” and 33 ± 1.18 µM in “in vitro [6]”.
As for `CC(=O)NCC(=O)O.CC(=O)NCC(=O)O.N=C(N)c1ccc(N=NNc2ccc(C(=N)N)cc2)cc1` [DA, diminazene aceturate], in the data set on B. microti [7] (2 mM ATP), the “effect of addition of ATP on the inhibitory effect” value is on record as “did not affect”. For the same molecule, in the data set with B. microti [7] (2 mM pyruvic acid), the “effect of addition of pyruvate on the inhibitory effect” value is recorded as “no effect”. For the same molecule, in the data set on B. microti [7], the “inhibition of B. microti as compared with DMSO” value is given as “significantly inhibit”.
`CCOC(=O)C(C)=O` [Ethyl pyruvate]: the “time of exposure to kill trypanosomes” value in the data set with trypanosomes was at most 3 h.
Turning to `O=c1cc(-c2ccccc2)oc2ccccc12` [Flavone], on rBmPYKI [1], the “effect on the activity of rBmPYKI” value is “no effect”. Moreover, the IC50 on rBmPYKI [1] (read-out: IC50 rBmPYKI) and on rBmLDH (read-out: IC50 rBmLDH) was over 1950 µM throughout. The “effect on rBmLDH / LDH reaction activity” value at rBmLDH is given as “no effect”.
With `CC(C)=CCC1=C(O)C(=O)c2ccccc2C1=O` [Lapachol], the “effect on the activity of rBmPYKI” value at rBmPYKI [1] is reported as “no effect”. On rBmLDH, 721 µM corresponded to half-maximal inhibition (IC50) and the “effect on rBmLDH / LDH reaction activity” value was “no effect”.
For the molecule `C=C(OP(=O)(O)O)C(=O)O` [PEP, phosphoenolpyruvate], the Km in the data set with PYK from T. gondii was 750 µM; with PYK from P. falciparum it was 190 µM.
